Source: patent publication US20250197387A1, “BCL-XL DEGRADERS AND USES THEREOF” (Kymera Therapeutics, Inc., priority 2021, published 2025)
Like-named read-outs stand apart in the source and are kept apart here.

How the values were obtained:
Assay type in all cases: cell-based
BCL-XL = molecular target: T1, BCL-XL (Homo sapiens, UniProt Q07817); test: Bcl-xL ELISA degradation in MOLT-4 cells, 6 h; conditions: for DC50: read-out: Bcl-xL ELISA in MOLT-4 degradation 6 h: Mean external-Abs DC50
T1 construct: endogenous in cells; host or cells: MOLT-4
T1 sequence (Q07817 whole entry): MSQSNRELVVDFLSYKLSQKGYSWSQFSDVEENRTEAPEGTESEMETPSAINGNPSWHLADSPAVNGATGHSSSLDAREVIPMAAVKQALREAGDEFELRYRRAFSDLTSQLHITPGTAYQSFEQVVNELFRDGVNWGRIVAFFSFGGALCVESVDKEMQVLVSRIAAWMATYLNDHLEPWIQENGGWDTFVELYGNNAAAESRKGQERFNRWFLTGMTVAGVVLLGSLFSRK
Experimental: The letter codes for BCL-XL DC50 include: A (<0.01 μM); B (0.01-0.1 μM); C (>[…]); D (>0.5-1.0 μM); and E (>1.0 μM). The letter codes for Dmax % include A (>75%); B (50 to 75%); C (<50%).

Caki-2 cells = test: CTG (CellTiter-Glo) cell viability assay, Caki-2; conditions: 3 day incubation, read-out: CTG Chempartner - Caki-2 3 day: Average external-IC50
Experimental: Compound-mediated viability effect on MOLT-4 and Caki-2 was quantitatively determined using the CellTiter-Glo® Luminescent Cell Viability Assay kit from Promega (Catalog number G7570) following manufacturer's recommended procedures. Briefly, MOLT-4 and Caki-2 cells were seeded into 384 well plates (Grenier Bio-One, Catalog number 781080) with a density of 10,000 cells per well. Compounds were then added to the assay plate with final top concentration of 10 μM and 1:3 dilution series with total of 9 doses. The final DMSO concentration is normalized to 0.2%. The assay plates were incubated at 37° C., for 3 days under 5% CO2. Then the assay plate was equilibrated at room temperature for 10 minutes. To determine cell viability, 30 uL CellTiter Glo reagent was added to each well and the assay plate was centrifuged at 1000 rpm for 30 second, incubated at room temperature for 10 min, and analyzed by detecting the luminescence using a multimode plate reader (EnVision 2105, PerkinElmer). The data was then analyzed by software Prism 7.0 from GraphPad and the dose response curves are fit using a three-parameter logistic equation to calculate IC50.
The letter codes for MOLT-4 IC50 include: A (<0.1 μM); B (0.1-1.0 μM); C (>1.0-3.0 μM); and D (>3.0 μM). The letter codes for Caki-2 IC50 include: A (<0.1 μM); B (0.1-1.0 μM); C (>1.0-10.0 μM); and D (>10.0 μM).

MOLT-4 cells = test: CTG (CellTiter-Glo) cell viability assay, MOLT-4; conditions: 3 day incubation, read-out: CTG Cell Viability Assay - MOLT-4 3 day: Average external-IC50
Procedure, shortened: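 10,000 cells/well; 9 doses, 1:3 from 10 μM top; 0.2% DMSO; 3 d, 37 °C, 5% CO2; CTG luminescence; IC50 via 3-parameter logistic fit. Letter bins differ: Caki-2 C/D cut at 10.0 μM, MOLT-4 at 3.0 μM.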

| Compound | Dmax (BCL-XL) | DC50 (BCL-XL) | IC50 (Caki-2 cells; Homo sapiens, 72 h) | IC50 (MOLT-4 cells; Homo sapiens, MOLT-4, 72 h) | Bcl-xL ELISA in MOLT-4 degradation 6 h: Average Dmax % (BCL-XL) | IC50 (Caki-2 cells) | IC50 (MOLT-4 cells) |
| --- | --- | --- | --- | --- | --- | --- | --- |
| Cc1ncsc1-c1ccc(CNC(=O)[C@@H]2C[C@@H](O)CN2C(=O)[C@@H](NC(=O)CCc2ccc(S(=O)(=O)NC(=O)c3nc(N4CCc5cccc(C(=O)Nc6nc7ccccc7s6)c5C4)ccc3-c3cnn(CC(C)C)c3C)cc2)C(C)(C)C)cc1 [I-318] | > 75% | 10 to 100 nM | 1 to 10 µM | < 100 nM | – | – | – |
| Cc1ncsc1-c1ccc(CNC(=O)[C@@H]2C[C@@H](O)CN2C(=O)[C@@H](NC(=O)CCc2cccc(S(=O)(=O)NC(=O)c3nc(N4CCc5cccc(C(=O)Nc6nc7ccccc7s6)c5C4)ccc3-c3cnn(CC4CCCCC4)c3C)c2)C(C)(C)C)cc1 [I-321] | – | 10 to 100 nM | – | – | A (A (>75%)) | 1 to 10 µM | < 100 nM |
| Cc1ncsc1-c1ccc([C@H](C)NC(=O)[C@@H]2C[C@@H](O)CN2C(=O)[C@@H](NC(=O)CCCCCCS(=O)(=O)NC(=O)c2nc(N3CCc4cccc(C(=O)Nc5nc6ccccc6s5)c4C3)ccc2-c2cnn(CC3CCCCC3)c2C)C(C)(C)C)cc1 [I-312] | > 75% | 10 to 100 nM | 1 to 10 µM | < 100 nM | – | – | – |
| Cc1ncsc1-c1ccc([C@H](C)NC(=O)[C@@H]2C[C@@H](O)CN2C(=O)[C@@H](NC(=O)C2CCCN(c3ccc(S(=O)(=O)NC(=O)c4nc(N5CCc6cccc(C(=O)Nc7nc8ccccc8s7)c6C5)ccc4-c4cnn(CC5CCCCC5)c4C)cc3)C2)C(C)(C)C)cc1 (some centres unmarked) [I-419] | > 75% | < 10 nM | 1 to 10 µM | < 100 nM | – | – | – |
| Cc1ncsc1-c1ccc([C@H](C)NC(=O)[C@@H]2C[C@@H](O)CN2C(=O)[C@@H](NC(=O)C2CCN(c3ccc(S(=O)(=O)NC(=O)c4nc(N5CCc6cccc(C(=O)Nc7nc8ccccc8s7)c6C5)ccc4-c4cnn(CC5CC5)c4C)cc3)CC2)C(C)(C)C)cc1 [I-344] | > 75% | 10 to 100 nM | > 10 µM | 100 to 1000 nM | – | – | – |
| C#Cc1ccc(CNC(=O)[C@@H]2C[C@@H](O)CN2C(=O)[C@@H](NC(=O)CCCS(=O)(=O)NC(=O)c2nc(N3CCc4cccc(C(=O)Nc5nc6cccnc6s5)c4C3)ccc2-c2cnn(CC3CCCCC3)c2C)C(C)(C)C)cc1 [I-362] | > 75% | 10 to 100 nM | > 10 µM | 100 to 1000 nM | – | – | – |
| C#Cc1ccc([C@H](C)NC(=O)[C@@H]2C[C@@H](O)CN2C(=O)[C@@H](NC(=O)CCCCCS(=O)(=O)NC(=O)c2nc(N3CCc4cccc(C(=O)Nc5nc6cccnc6s5)c4C3)ccc2-c2cnn(CC3CCCCC3)c2C)C(C)(C)C)c(O)c1 [I-479] | > 75% | < 10 nM | > 10 µM | < 100 nM | – | – | – |
| C#Cc1ccc(CNC(=O)[C@@H]2C[C@@H](O)CN2C(=O)[C@@H](NC(=O)CCCCCS(=O)(=O)NC(=O)c2nc(N3CCc4cccc(C(=O)Nc5nc6ccccc6s5)c4C3)ccc2-c2cnn(CC3CCCCC3)c2C)C(C)(C)CCOP(=O)(O)O)cc1 [I-417] | 50 to 75% | > 1000 nM | > 10 µM | > 3000 nM | – | – | – |
| Cc1ncsc1-c1ccc([C@H](C)NC(=O)[C@@H]2C[C@@H](O)CN2C(=O)[C@@H](NC(=O)C2CCN(CCS(=O)(=O)NC(=O)c3nc(N4CCc5cccc(C(=O)Nc6nc7ccccc7s6)c5C4)ccc3-c3cnn(CC4CCCCC4)c3C)CC2)C(C)(C)C)cc1 [I-373] | > 75% | 10 to 100 nM | > 10 µM | 100 to 1000 nM | – | – | – |
| Cc1ncsc1-c1ccc([C@H](C)NC(=O)[C@@H]2C[C@@H](O)CN2C(=O)[C@@H](NC(=O)CCCCCS(=O)(=O)NC(=O)c2nc(N3CCc4cccc(C(=O)Nc5nc6ccccc6s5)c4C3)ccc2-c2cnn(CC(C)(C)C)c2C)C(C)(C)C)cc1 [I-465] | > 75% | 10 to 100 nM | > 10 µM | 100 to 1000 nM | – | – | – |
| C#Cc1ccc([C@H](C)NC(=O)[C@@H]2C[C@@H](O)CN2C(=O)[C@@H](NC(=O)C2CN(c3ccc(S(=O)(=O)NC(=O)c4nc(N(C)c5cc(C)c(Nc6nc7ccccc7s6)nn5)ccc4-c4cnn(CC56CC7CC(CC(C7)C5)C6)c4C)cc3)C2)C(C)(C)C)cc1 [I-438] | > 75% | < 10 nM | > 10 µM | < 100 nM | – | – | – |
